Patent US20070179810A1, “Controls for antimicrobial use and infection” (priority 2006, published 2007)

Tests used:
Proteus mirahilis = test: Susceptibility of Proteus mirabilis isolates (annual antibiogram); assay type: cell-based; settings: 133 isolates; 2000 vs 2002 and 2003
Excerpt: (§1) The Microbiology Department collected data on the susceptibility of major pathogens and published an annual antibiograrn, a copy of which was placed in each hospital chart as well as sent to all physicians. […] T tests were used in determining statistical significance between the years.

Serratia marcescens = test: Susceptibility of Serratia marcescens isolates (annual antibiogram); assay type: cell-based; settings: 109 isolates; 2000 vs 2002 and 2003
Excerpt: as §1

Klebsiella pneumoniae = test: Susceptibility of hospital Klebsiella pneumoniae isolates (annual antibiogram); assay type: cell-based; settings: for Change in susceptibility of Klebsiella pneumoniae: 218 isolates, 2000 vs 2002 and 2003, T test; for Percent Susceptible in 2000 / Percent Susceptible in 2002 / Percent Susceptible in 2003: K. pneumoniae isolates; for Percent Susceptible in 2000: 2000, year prior to program; for Percent Susceptible in 2002 / Percent Susceptible in 2003: * = statistically significant change compared to 2000
Excerpt: as §1

[1] = test system: non-urinary Pseuclomonas aeruginosa; test: Susceptibility of non-urinary Pseudomonas aeruginosa isolates (annual antibiogram); assay type: cell-based; settings: 338 isolates; 2000 vs 2002 and 2003
Excerpt: as §1

non-urinary E. coli = test: Susceptibility of non-urinary E. coli isolates (annual antibiogram); assay type: cell-based; settings: 548 isolates
Excerpt: as §1

urinary E. coli = test: Susceptibility of urinary E. coli isolates (annual antibiogram); assay type: cell-based; settings: 1615 isolates
Excerpt: as §1

Enterobucter cloucue = test: Susceptibility of Enterobacter cloacae isolates (annual antibiogram); assay type: cell-based; settings: 134 isolates; 2000 vs 2002 and 2003
Excerpt: as §1

Pseudomonas aeruginosa = test system: Pseudomonas aeruginosa
Excerpt: as §1

[2] = 2000, last year before the study

Compound	Change in susceptibility of Klebsiella pneumoniae (Klebsiella pneumoniae)	Percent Susceptible in 2000 (Klebsiella pneumoniae)	Percent Susceptible in 2002 (Klebsiella pneumoniae)	Percent Susceptible in 2003 (Klebsiella pneumoniae)	also measured
CO/N=C(\C(=O)N[C@@H]1C(=O)N2C(C(=O)[O-])=C(C[N+]3(C)CCCC3)CS[C@H]12)c1csc(N)n1 [Cefepime]	did not reach statistical significance	94%	98%	98%	Change in susceptibility of Proteus mirabilis (Proteus mirahilis): no statistically significant change; Change in susceptibility of Serratia marcescens (Serratia marcescens): no statistically significant change; Change in susceptibility of non-urinary Pseudomonas aeruginosa [1]: no statistically significant change; Susceptibility of non-urinary E. coli, before (non-urinary E. coli; [2]): 100%; Susceptibility of non-urinary E. coli, after (non-urinary E. coli; during the study (2002 and 2003), significant decrease): 98%
CC(C)(O/N=C(\C(=O)N[C@@H]1C(=O)N2C(C(=O)[O-])=C(C[n+]3ccccc3)CS[C@H]12)c1csc(N)n1)C(=O)O [Ceftazidime]	statistically significant increase in susceptibility	85%	99* Percent	96* Percent	Change in susceptibility of Proteus mirabilis (Proteus mirahilis): no statistically significant change; Change in susceptibility of Serratia marcescens (Serratia marcescens): no statistically significant change; Susceptibility of urinary E. coli, before (urinary E. coli; [2]): 100%; Susceptibility of urinary E. coli, after (urinary E. coli; during the study (2002 and 2003), significant fall): 98%; Change in susceptibility of non-urinary Pseudomonas aeruginosa [1]: no statistically significant change; Change in susceptibility of non-urinary E. coli (non-urinary E. coli; 2000 vs 2002 and 2003): not significant; Change in susceptibility of Enterobacter cloacae (Enterobucter cloucue): no statistically significant change
CO/N=C(\C(=O)N[C@@H]1C(=O)N2C(C(=O)O)=C(CSc3nc(=O)c(=O)[nH]n3C)CS[C@H]12)c1csc(N)n1 [Ceftriaxone]	statistically significant increase in susceptibility	85%	98* Percent	96* Percent	–
CO/N=C(\C(=O)N[C@@H]1C(=O)N2C(C(=O)O)=C(COC(N)=O)CS[C@H]12)c1ccco1 [Cefuroxime]	statistically significant increase in susceptibility	78%	94* Percent	93* Percent	–
C[C@H]1COc2c(N3CCN(C)CC3)c(F)cc3c(=O)c(C(=O)O)cn1c23 [Levofloxacin]	–	82%	99* Percent	96* Percent	–
NC[C@H]1O[C@H](O[C@H]2[C@H](O)[C@@H](O[C@H]3O[C@H](CO)[C@@H](O)[C@H](N)[C@H]3O)[C@H](N)C[C@@H]2N)[C@H](N)C[C@@H]1O [Tobramycin]	statistically significant increase in susceptibility	90%	99* Percent	96%	–
C[C@@H](O)[C@H]1C(=O)N2C(C(=O)O)=C(SCCN=CN)C[C@H]12 [imipenem]	–	–	–	–	Pseudomonas aeruginosa susceptibility in 2000 (Pseudomonas aeruginosa; 2000): 93%; Pseudomonas aeruginosa susceptibility in 2002 (Pseudomonas aeruginosa; 2002, significant decrease): 83%; Pseudomonas aeruginosa susceptibility in 2003 (Pseudomonas aeruginosa; 2003): 91%
Gentamicin	statistically significant increase in susceptibility	83%	99* Percent	96%	–
Trimethoprirn/Sulfa	statistically significant increase in susceptibility	86%	97* Percent	93%	–
